Measured values as given in patent US20240190874A1, “SMALL MOLECULE DEGRADERS OF ANDROGEN RECEPTOR” (THE REGENTS OF THE UNIVERSITY OF MICHIGAN, priority 2021, published 2024).
Like-named read-outs stand apart in the source and are kept apart here.

Tests used:
Format in all cases: cell-based
AR = biological target: T1, AR (Homo sapiens, UniProt P10275); test: Degradation of AR in VCaP cells; conditions: VCaP cells; for Dmax: VCaP
T1 construct: Degradation of AR; Cellular potency; host or cells: VCaP cells
T1 sequence (P10275 1-920): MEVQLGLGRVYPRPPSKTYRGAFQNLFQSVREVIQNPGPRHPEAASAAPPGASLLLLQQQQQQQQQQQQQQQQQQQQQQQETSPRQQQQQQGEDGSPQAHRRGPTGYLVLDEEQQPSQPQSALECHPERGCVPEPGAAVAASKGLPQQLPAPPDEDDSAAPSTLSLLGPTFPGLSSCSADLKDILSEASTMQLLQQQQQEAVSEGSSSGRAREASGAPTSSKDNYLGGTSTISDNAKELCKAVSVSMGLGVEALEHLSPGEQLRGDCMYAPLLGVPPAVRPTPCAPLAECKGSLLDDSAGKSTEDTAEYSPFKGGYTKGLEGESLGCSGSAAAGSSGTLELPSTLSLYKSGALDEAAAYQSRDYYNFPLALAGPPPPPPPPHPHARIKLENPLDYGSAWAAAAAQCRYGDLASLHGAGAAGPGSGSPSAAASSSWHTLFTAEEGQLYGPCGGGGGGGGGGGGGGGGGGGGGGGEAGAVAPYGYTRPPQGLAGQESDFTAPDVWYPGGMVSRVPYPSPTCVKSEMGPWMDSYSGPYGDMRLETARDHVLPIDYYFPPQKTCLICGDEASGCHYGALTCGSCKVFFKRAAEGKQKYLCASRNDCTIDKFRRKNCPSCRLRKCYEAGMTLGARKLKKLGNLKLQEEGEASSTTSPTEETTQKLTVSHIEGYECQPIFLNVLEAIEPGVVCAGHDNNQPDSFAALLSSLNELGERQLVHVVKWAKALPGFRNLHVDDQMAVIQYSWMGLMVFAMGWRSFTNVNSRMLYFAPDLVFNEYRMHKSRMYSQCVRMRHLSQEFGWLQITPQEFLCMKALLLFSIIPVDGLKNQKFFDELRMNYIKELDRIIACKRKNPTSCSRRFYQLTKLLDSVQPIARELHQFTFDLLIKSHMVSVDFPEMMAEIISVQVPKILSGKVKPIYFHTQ
Protocol: (§1) Biological Assays. LNCaP and VCaP cells used were purchased from American Type Culture Collection (ATCC). LNCaP were grown in RPMI 1640 (Invitrogen) and VCaP cells were grown in DMEM with Glutamax (Invitrogen). All of the cells were supplemented with 10% fetal bovine serum (Invitrogen) at 37° C. in a humidified 5% CO2 incubator.

LNCaP cells = test: Cellular potency (IC50) in LNCaP cells
Protocol: as §1

VCaP cells = test: Cellular potency (IC50) in VCaP cells
Protocol: as §1

SMILES	DC50 (AR) [nM]	Dmax (AR) [%]	IC50 (LNCaP cells; Homo sapiens, LNCaP) [nM]	IC50 (VCaP cells; Homo sapiens, VCaP) [nM]	Degradation of AR in VCaP cells Dmax (AR)	IC50 (LNCaP cells) [nM]	IC50 (VCaP cells) [nM]
C[C@H]1CC2(CCN(c3ccc(N4CCC(N(C)C5CN(c6ccc7c(c6)C(=O)N(C6CCC(=O)NC6=O)C7=O)C5)CC4)nc3)CC2)CN1c1ccc(C#N)c(Cl)c1 (stereo partly shown) [compound 124]	< 10	70 to 90	< 100	< 100	–	–	–
C[C@H]1CC2(CCN(c3ccc(N4CCN(CC5CCN(c6ccc7c(c6)C(=O)N(C6CCC(=O)NC6=O)C7=O)CC5)CC4)nn3)CC2)CN1c1ccc(C#N)c(Cl)c1 (stereo partly shown) [compound 48]	< 1	> 90	< 10	< 10	–	–	–
C[C@H]1CC2(CCN(c3ccc(N4CCN(C5CN(c6ccc7c(c6)C(=O)N(C6CCC(=O)NC6=O)C7=O)C5)CC4)cc3F)CC2)CN1c1ccc(C#N)c(Cl)c1 (stereo partly shown) [compound 39]	< 1	> 90	< 10	< 10	–	–	–
C[C@H]1CC2(CCN(c3ccc(N4CCC(CN5CCN(c6ccc7c(c6)C(=O)N(C6CCC(=O)NC6=O)C7=O)CC5)CC4)cn3)CC2)CN1c1ccc(C#N)c(Cl)c1 (stereo partly shown) [compound 51]	< 10	> 90	< 100	< 100	–	–	–
C[C@H]1CC2(CCN(c3ccc(CN4CCC(C5CN(c6ccc7c(c6)C(=O)N(C6CCC(=O)NC6=O)C7=O)C5)CC4)c(F)c3)CC2)CN1c1ccc(C#N)c(Cl)c1 (stereo partly shown) [compound 41]	< 10	–	–	–	A (A = >90%)	< 100	< 100
C[C@H]1CC2(CCN(c3ccc(OC4CN(C5CN(c6ccc7c(c6)C(=O)N(C6CCC(=O)NC6=O)C7=O)C5)C4)nc3)CC2)CN1c1ccc(C#N)c(Cl)c1 (stereo partly shown) [compound 71]	< 100	50 to 70	< 1000	< 1000	–	–	–
C[C@H]1CC2(CCN(c3cnc(N4CCN(CC5CN(c6ccc7c(c6)C(=O)N(C6CCC(=O)NC6=O)C7=O)C5)CC4)cn3)CC2)CN1c1ccc(C#N)c(Cl)c1 (stereo partly shown) [compound 49]	< 1	> 90	< 10	< 10	–	–	–
C[C@H]1CC2(CCN(c3ccc(CN4CCC(N5Cc6cc7c(cc6C5)C(=O)N(C5CCC(=O)NC5=O)C7=O)CC4)cc3)CC2)CN1c1ccc(C#N)c(Cl)c1 (stereo partly shown) [compound 19]	< 100	70 to 90	< 100	< 100	–	–	–
C[C@H]1CC2(CCN(c3ccc(N4CCN(CC5CN(c6ccc7c(c6)C(=O)N(C6CCC(=O)NC6=O)C7=O)C5)CC4)nc3)CC2)CN1c1ccc(C#N)c(Cl)c1 (stereo partly shown) [compound 34]	< 1	> 90	< 10	< 10	–	–	–
C[C@H]1CC2(CCN(c3ccc(N4CCC(N(C)C5CN(c6ccc7c(c6)C(=O)N(C6CCC(=O)NC6=O)C7=O)C5)CC4)nn3)CC2)CN1c1ccc(C#N)c(Cl)c1 (stereo partly shown) [compound 125]	< 10	> 90	< 10	< 10	–	–	–
C[C@H]1CC2(CCN(c3ncc(CN4CCN(C5CN(c6ccc7c(c6)C(=O)N(C6CCC(=O)NC6=O)C7=O)C5)CC4)cn3)CC2)CN1c1ccc(C#N)c(Cl)c1 (stereo partly shown) [compound 183]	< 1	–	< 100	< 100	–	–	–
C[C@H]1CC2(CCN(c3ccc(C4CCN(CC5CCN(c6ccc7c(c6)C(=O)N(C6CCC(=O)NC6=O)C7=O)CC5)CC4)cn3)CC2)CN1c1ccc(C#N)c(Cl)c1 (stereo partly shown) [compound 44]	< 1	> 90	< 10	< 10	–	–	–
C[C@H]1CC2(CCN(c3ccc(N4CCN(CC5CN(c6ccc7c(c6)C(=O)N(C6CCC(=O)NC6=O)C7=O)C5)CC4)cc3F)CC2)CN1c1ccc(C#N)c(Cl)c1 (stereo partly shown) [compound 37]	< 1	> 90	< 10	< 10	–	–	–
C[C@H]1CC2(CCN(c3ccc(CC4CCN(CC5CN(c6ccc7c(c6)C(=O)N(C6CCC(=O)NC6=O)C7=O)C5)CC4)cc3)CC2)CN1c1ccc(C#N)c(Cl)c1 (stereo partly shown) [compound 25]	< 1	> 90	< 10	< 10	–	–	–
C[C@H]1CC2(CCN(c3ccc(S(=O)(=O)C4CCN(C5CCN(c6ccc7c(c6)C(=O)N(C6CCC(=O)NC6=O)C7=O)CC5)CC4)cc3)CC2)CN1c1ccc(C#N)c(Cl)c1 (stereo partly shown) [compound 161]	< 1	–	< 10	< 10	–	–	–
C[C@H]1CC2(CCN(c3ccc(CC4CCN(C5CN(c6ccc7c(c6)C(=O)N(C6CCC(=O)NC6=O)C7=O)C5)CC4)nn3)CC2)CN1c1ccc(C#N)c(Cl)c1 (stereo partly shown) [compound 198]	< 10	–	< 10	< 10	–	–	–
C[C@H]1CC2(CCN(c3ccc(OC4CN(C5CN(c6ccc7c(c6)C(=O)N(C6CCC(=O)NC6=O)C7=O)C5)C4)cn3)CC2)CN1c1ccc(C#N)c(Cl)c1 (stereo partly shown) [compound 69]	< 1	> 90	< 10	< 10	–	–	–
C[C@H]1CC2(CCN(c3cnc(C(=O)N4CCN(C5CN(c6ccc7c(c6)C(=O)N(C6CCC(=O)NC6=O)C7=O)C5)CC4)s3)CC2)CN1c1ccc(C#N)c(Cl)c1 (stereo partly shown) [compound 137]	< 10	70 to 90	< 100	< 100	–	–	–
C[C@H]1CC2(CCN(c3ccc(C(=O)N4CCC(N5CCOc6cc7c(cc6C5)C(=O)N(C5CCC(=O)NC5=O)C7=O)CC4)cc3)CC2)CN1c1ccc(C#N)c(Cl)c1 (stereo partly shown) [compound 194]	< 10	–	< 10	< 100	–	–	–
C[C@H]1CC2(CCN(c3ccc(OC4CN(C5CCN(c6ccc7c(c6)C(=O)N(C6CCC(=O)NC6=O)C7=O)CC5)C4)cn3)CC2)CN1c1ccc(C#N)c(Cl)c1 (stereo partly shown) [compound 70]	< 100	50 to 70	< 1000	< 1000	–	–	–
C[C@H]1CC2(CCN(c3ccc(CN4CCN(C5CCN(c6ccc7c(c6)C(=O)N(C6CCC(=O)NC6=O)C7=O)CC5)CC4)c(F)c3)CC2)CN1c1ccc(C#N)c(Cl)c1 (stereo partly shown) [compound 10]	< 10	> 90	–	–	–	< 10	< 10
C[C@H]1CC2(CCN(c3ccc(N4CCC(OC5CN(c6ccc7c(c6)C(=O)N(C6CCC(=O)NC6=O)C7=O)C5)CC4)cn3)CC2)CN1c1ccc(C#N)c(Cl)c1 (stereo partly shown) [compound 92]	< 1	> 90	< 10	< 10	–	–	–
C[C@H]1CC2(CCN(c3ccc(CC4CCN(C5CN(c6ccc7c(c6)C(=O)N(C6CCC(=O)NC6=O)C7=O)C5)CC4)nc3)CC2)CN1c1ccc(C#N)c(Cl)c1 (stereo partly shown) [compound 197]	< 1	–	< 10	< 10	–	–	–
C[C@H]1CC2(CCN(c3ccc(N4CCN(C5CCN(c6ccc7c(c6)C(=O)N(C6CCC(=O)NC6=O)C7=O)CC5)CC4)cc3)CC2)CN1c1ccc(C#N)c(Cl)c1 (stereo partly shown) [compound 29]	< 100	> 90	< 100	< 100	–	–	–
C[C@H]1CC2(CCN(c3ccc(CN4CCC(C5CN(c6ccc7c(c6)C(=O)N(C6CCC(=O)NC6=O)C7=O)C5)CC4)cn3)CC2)CN1c1ccc(C#N)c(Cl)c1 (stereo partly shown) [compound 176]	< 10	–	< 10	< 10	–	–	–
C[C@H]1CC2(CCN(c3ccc(S(=O)(=O)C4CN(C(=O)CN5Cc6cc7c(cc6C5)C(=O)N(C5CCC(=O)NC5=O)C7=O)C4)cc3)CC2)CN1c1ccc(C#N)c(Cl)c1 (stereo partly shown) [compound 149]	< 1	–	< 10	< 100	–	–	–
